According to the PolyMetriX glass transition set:

glass transition temperature [°C]	Compound
225.00	*C(=O)Oc1ccc(C(C)(C)c2ccc(OC(=O)c3ccc4c(c3)C(=O)N(c3ccc(O)c(N5C(=O)c6ccc(*)cc6C5=O)c3)C4=O)cc2)cc1 (repeat unit)
225.00	*C(=O)Oc1ccc(C(C)(C)c2ccc(OC(=O)c3ccc4c(c3)C(=O)N(c3cccc(N5C(=O)c6ccc(*)cc6C5=O)c3)C4=O)cc2)cc1 (repeat unit)
66.00	*CC(COc1ccc(C(C)(C)c2ccc(O*)cc2)cc1)OC(=O)c1ccccc1Cl (repeat unit)
100.00	*CC(O)CN(CC(O)COc1ccc(C(C)(C)c2ccc(O*)cc2)cc1)c1ccc(C#N)cc1 (repeat unit)
94.2	*CC(O)CN(Cc1ccccc1)CC(O)COc1ccc(C(C)(C)c2ccc(O*)cc2)cc1 (repeat unit)
70.00	*CC(O)COC(=O)C1CCC(C(=O)OCC(O)COc2ccc(C(C)(C)c3ccc(O*)cc3)cc2)CC1 (repeat unit)
34.00	*CC(O)COC(=O)CCCCC(=O)OCC(O)COc1ccc(C(C)(C)c2ccc(O*)cc2)cc1 (repeat unit)
91.00	*CC(O)COc1ccc(C(C)(C)c2ccc(O*)cc2)cc1 (repeat unit)
161.00	*CC(O)COc1ccc(C(C)(C)c2ccc(OCC(O)COc3ccc(C4(c5ccc(O*)cc5)c5ccccc5-c5ccccc54)cc3)cc2)cc1 (repeat unit)
116.00	*CC(O)COc1ccc(C(C)(C)c2ccc(OCC(O)COc3ccc(NC(=O)CCCCCC(=O)Nc4ccc(O*)cc4)cc3)cc2)cc1 (repeat unit)
117.50	*CC(O)COc1ccc(C(C)(C)c2ccc(OCC(O)COc3ccc(S(=O)(=O)c4ccc(O*)c(C)c4)cc3C)cc2)cc1 (repeat unit)
117.00	*CC(O)COc1ccc(C(C)(C)c2ccc(OCC(O)COc3cccc(C(=O)Nc4cccc(O*)c4)c3)cc2)cc1 (repeat unit)
103.00	*CC(O)COc1ccc(C(C)(C)c2ccc(OCC(O)COc3cccc(NC(=O)CCCCC(=O)Nc4cccc(O*)c4)c3)cc2)cc1 (repeat unit)
107.00	*CC(O)COc1ccc(C(C)(C)c2ccc(OCC(O)COc3cccc(NC(=O)CCCCCC(=O)Nc4cccc(O*)c4)c3)cc2)cc1 (repeat unit)
95.00	*CC(O)COc1ccc(C(C)(CC)c2ccc(O*)cc2)cc1 (repeat unit)
142.50	*CC(O)COc1ccc(S(=O)(=O)c2ccc(OCC(O)COc3ccc(S(=O)(=O)c4ccc(O*)c(C)c4)cc3C)cc2)cc1 (repeat unit)
27.80	*CCCCCCCCOc1ccc(C(c2ccc(O*)cc2)(C(F)(F)F)C(F)(F)F)cc1 (repeat unit)
60.00	*CCCOCCCCOCCCN1C(=O)c2ccc(C(=O)Oc3ccc(C(C)(C)c4ccc(OC(=O)c5ccc6c(c5)C(=O)N(*)C6=O)cc4)cc3)cc2C1=O (repeat unit)
24.00	*O[Si](C)(C)OC(CCl)COc1ccc(C(C)(C)c2ccc(OCC(*)CCl)cc2)cc1 (repeat unit)
125.00	*Oc1ccc(-c2ccc(OC(*)(Oc3ccccc3)Oc3ccccc3)c(C)c2)cc1C (repeat unit)

glass transition temperature [°C]	Compound
230.00	*Oc1ccc(C(C)(C)c2ccc(OC(=O)c3ccc(C(C)(C)c4ccc(C(*)=O)cc4)cc3)cc2)cc1 (repeat unit)
205.00	*Oc1ccc(C(C)(C)c2ccc(OC(=O)c3ccc(Cc4ccc(C(*)=O)cc4)cc3)cc2)cc1 (repeat unit)
77.00	*Oc1ccc(C(C)(C)c2ccc(OC(=O)c3ccc(OCCCCCCCCCCOc4ccc(C(*)=O)cc4)cc3)cc2)cc1 (repeat unit)
220.00	*Oc1ccc(C(C)(C)c2ccc(OC(=O)c3ccc(Oc4ccc(C(*)=O)cc4)cc3)cc2)cc1 (repeat unit)
128.00	*Oc1ccc(C(C)(CC(C)C)c2ccc(OC(*)=S)cc2)cc1 (repeat unit)
102.00	*Oc1ccc(C(C)(CC)c2ccc(OC(*)=S)cc2)cc1 (repeat unit)
180.00	*Oc1ccc(C(CC)(CC)c2ccc(OC(=O)c3ccc(C(*)=O)cc3)cc2)cc1 (repeat unit)
130.00	*Oc1ccc(C(CCC)c2ccc(OC(*)=S)cc2)cc1 (repeat unit)
287.00	*Oc1ccc(C2(c3ccc(OC(=O)c4cccc(C(*)=O)c4)c(C)c3)c3ccccc3-c3ccccc32)cc1C (repeat unit)
162.20	*Oc1ccc(S(=O)(=O)c2ccc(OC3(F)C(*)(F)C(F)(F)C3(F)F)cc2)cc1 (repeat unit)
177.00	*c1cc(C(c2ccc(OCCN(C)c3ccc(/C=C/C4=CC(=C(/C#N)C(=O)OCCc5ccccc5)/CC(C)(C)C4)cc3)c(N3C(=O)c4ccc(Oc5ccc6c(c5)C(=O)N(*)C6=O)cc4C3=O)c2)(C(F)(F)F)C(F)(F)F)ccc1OCCN(c1ccccc1)c1ccc(/C=C/C2=CC(=C(/C#N)C(=O)OCCc3ccccc3)/CC(C)(C)C2)cc1 (repeat unit)
225.00	*c1cc(C(c2ccc(OCCN(C)c3ccc(/C=C/C4=CC(=C(/C#N)S(C)(=O)=O)/CC(C)(C)C4)cc3)c(N3C(=O)c4ccc(Oc5ccc6c(c5)C(=O)N(*)C6=O)cc4C3=O)c2)(C(F)(F)F)C(F)(F)F)ccc1OCCN(C)c1ccc(/C=C/C2=CC(=C(/C#N)S(C)(=O)=O)/CC(C)(C)C2)cc1 (repeat unit)
172.00	*c1ccc(Cc2ccc(N3C(=O)C(Cl)=C(Oc4ccc(C(C)(C)c5ccc(OC6=C(Cl)C(=O)N(*)C6=O)cc5)cc4)C3=O)cc2)cc1 (repeat unit)
325.00	*c1ccc(OC(=O)c2cccc(C(=O)Oc3ccc(C4(*)NC(=O)c5ccccc54)cc3)c2)cc1 (repeat unit)
285.00	*c1ccc(OC(=O)c2cccc(C(=O)Oc3ccc(C4(*)c5ccccc5C(=O)N4C)cc3)c2)cc1 (repeat unit)
175.00	*c1ccc(OCCCCCCN(CC)c2ccc(C(C#N)=C(C#N)C#N)cc2)c(-c2cc(-c3ccccc3)c3cc(Oc4ccc5nc(*)cc(-c6ccccc6)c5c4)ccc3n2)c1 (repeat unit)
175.00	*c1ccc(Oc2ccc(N3C(=O)C(Cl)=C(Oc4ccc(C(C)(C)c5ccc(OC6=C(Cl)C(=O)N(*)C6=O)cc5)cc4)C3=O)cc2)cc1 (repeat unit)
150.30	*c1ccc2c(c1)C(=O)N(c1cc(N3C(=O)c4ccc(C(*)(C(F)(F)F)C(F)(F)F)cc4C3=O)ccc1OCCCCCCOc1ccc(-c3ccc(OCC)cc3)cc1)C2=O (repeat unit)
198.00	*c1ccc2c(c1)C(=O)N(c1cc(N3C(=O)c4ccc(C(*)(C(F)(F)F)C(F)(F)F)cc4C3=O)ccc1OCCCCCCOc1ccc(/N=N/c3ccc(OCC)cc3)cc1)C2=O (repeat unit)

Compound	glass transition temperature [°C]
*C(=O)c1ccc2c(c1)C(=O)N(c1cccc(OP(=O)(Oc3cccc(N4C(=O)c5ccc(*)cc5C4=O)c3)c3ccccc3)c1)C2=O (repeat unit)	176.50
*C(=O)c1ccc2c(c1)C(=O)N(c1cccc(P(=O)(c3cccc(N4C(=O)c5ccc(*)cc5C4=O)c3)c3cc(C(F)(F)F)cc(C(F)(F)F)c3)c1)C2=O (repeat unit)	243.00
